In patent publication US11857560B2, “Pharmaceutical compositions comprising substituted nucleotides and nucleosides for treating viral infections” (priority 2013, dated 2024) one finds CC50 and EC50 data, which are given here for six molecules.

One series can be described thus: Cytotoxicity panel, CEM. The note with it: human, CEM cells, Cytotoxicity (CC50 uM) CEM.
Another series concerns CEM. Briefly: Cytotoxicity panel, CEM. The note with it: read-out: Cytotoxicity (CC50 uM) CEM.
Series [1] can be described thus: Cytotoxicity panel, Huh-7. The conditions noted are these: human, Huh-7 cells, Cytotoxicity (CC50 uM) Huh-7, Huh-7.
Series [2] can be described thus: Cellular toxicity in parallel with HCV replicon assay (XTT). The conditions noted are these: human. (A replicon is a self-replicating genome or part of one, used to study replication in cells.)
Another series in a line: Cytotoxicity panel, A204. The note with it: human, A204 cells. It counts as cell-based.
Series [3] is described as follows: Cytotoxicity panel, IEC-6. In kind it is cell-based. The conditions noted are these: rat, IEC-6 cells.
Series [4] in a line: Cytotoxicity panel, HepG2. The conditions noted are these: human, HepG2 cells.
The nature of series [5]: Cytotoxicity panel, BxPC3. The conditions noted are these: human, BxPC3 cells.
The next series deals with HepG2. Nature of the series: Cytotoxicity panel, HepG2. The conditions noted are these: read-out: Cytotoxicity (CC50 uM) HepG2; HepG2.
The nature of series [6]: Toxicity in Vero cells (Dengue assay). The note with it: African green monkey.
Series [7] can be described thus: Toxicity in Huh-7 cells (Dengue assay). The note with it: human, Huh-7 cells.
In another series the test system is Huh-7 cells. Briefly: Toxicity in Huh-7 cells (Dengue assay). The note with it: read-out: CC50 uM; Cell Line Huh-7, pan-serotype Dengue table.
The test system of series [8] is Dengue Type 2. Briefly: Anti-Dengue virus cytoprotection assay, Vero cells. The conditions noted are these: read-out: Dengue Type 2 Vero Cells (EC50 uM).
Series [9] has as its system Dengue Type 2. Nature of the series: Anti-Dengue virus cytoprotection assay, Huh-7 cells. The note with it: Huh-7, read-out: Dengue Type 2 Huh-7 Cells (EC50 uM).
In series [10] the test system is HCV replicon 2b (GT1b/2b NS5B chimera). Briefly: microbe, parasite or virus in culture. In kind it is cell-based. The note with it: Hepatitis C virus, read-out: EC50 (μM) 2b (GT1b/2b NS5B chimera).
Series [11] deals with HCV replicon 3a (GT1b/3a NS5B chimera). Briefly: microbe, parasite or virus in culture. In kind it is cell-based. The note with it: Hepatitis C virus, read-out: EC50 (μM) 3a (GT1b/3a NS5B chimera).
In series [12] the test system is HCV replicon 4a (GT1b/4a NS5B chimera). Briefly: microbe, parasite or virus in culture. The note with it: Hepatitis C virus, read-out: EC50 (μM) 4a (GT1b/4a NS5B chimera). In kind it is cell-based.
For a further series, the system named is Influenza A H1N1. Nature of the series: Antiviral activity, Influenza A H1N1. In kind it is cell-based.
The test system of a further series is Influenza A H3N2. Briefly: Antiviral activity, Influenza A H3N2. It counts as cell-based.
Series [13] relates to Influenza A H5N1 (low path). Nature of the series: microbe, parasite or virus in culture. It counts as cell-based. The conditions noted are these: H5N1, read-out: Influenza A H5N1 (low path) EC50.
In a further series the test system is Influenza B. Nature of the series: Antiviral activity, Influenza B. It counts as cell-based.
The next series concerns RSV. Briefly: Antiviral activity, RSV. The conditions noted are these: human respiratory syncytial virus. In kind it is cell-based.
A further series deals with Measles. Nature of the series: Antiviral activity, Measles. It counts as cell-based, measles virus. The conditions noted are these: Measles morbillivirus.
The next series concerns CHIK Virus. Briefly: Antiviral activity, CHIK Virus. In kind it is cell-based. The conditions noted are these: Chikungunya virus, read-out: CHIK Virus EC50.
Another series concerns Dengue Virus. Nature of the series: Antiviral activity, Dengue Virus. In kind it is cell-based.
A further series has as its system RVFV. Briefly: microbe, parasite or virus in culture. It counts as cell-based. The note with it: Rift Valley fever virus, read-out: RVFV EC50.
For a further series, the system named is Tacaribe Virus. Nature of the series: microbe, parasite or virus in culture. It counts as cell-based. The note with it: Mammarenavirus tacaribeense, read-out: Tacaribe Virus EC50.
Another series deals with VEEV. Briefly: microbe, parasite or virus in culture. It counts as cell-based. The note with it: Venezuelan equine encephalitis virus, read-out: VEEV EC50.
The next series has as its system West Nile Virus. Briefly: Antiviral activity, West Nile Virus. In kind it is cell-based. The conditions noted are these: read-out: West Nile Virus EC50.
The next series concerns SARS. Nature of the series: microbe, parasite or virus in culture. The note with it: Severe acute respiratory syndrome coronavirus, read-out: SARS EC50.

Like-named read-outs stand apart in the source and are kept apart here.

With `CC(C)OC(=O)[C@H](C)NP(=O)(OC[C@H]1O[C@@H](n2ccc(=S)[nH]c2=O)[C@@H](O)C1O)Oc1ccccc1` (stereo partly drawn) [ENUC-02071-1], the CC50 in “Cytotoxicity panel, CEM” is 241 µM; in the series with CEM it was above 400 µM; in series [1] it was 381 µM. In addition, the CC50 at 72 h in series [2] was above 100 µM.

On to `CC(C)OC(=O)[C@H](C)NP(=O)(OC[C@H]1O[C@@H](n2ccc(=S)[nH]c2=O)[C@](C)(F)C1O)Oc1ccccc1` (stereo partly drawn) [ENUC-01943-1], for which the CC50 is above 200 µM in the series “Cytotoxicity panel, A204”; above 400 µM in series [3]; 136 µM in the series “Cytotoxicity panel, CEM”; 199 µM in [4]; above 300 µM in [5].

For the molecule `CC(C)OC(=O)[C@H](C)N[P@](=O)(OC[C@H]1O[C@@H](n2ccc(=O)[nH]c2=S)[C@](C)(O)C1O)Oc1ccccc1` (stereo partly drawn) [ENUC-02023], the CC50 in the series with HepG2 is above 400 µM; in [6], above 100 µM; in series [7], above 100 µM; in the series with Huh-7 cells, above 100 µM. The EC50 was determined as 2.35 µM in the series with Dengue Type 2 [8] and 5.62 µM with Dengue Type 2 [9].

As to `CC(C)OC(=O)[C@H](C)N[P@](=O)(OC[C@H]1O[C@@H](n2ccc(=O)[nH]c2=S)[C@](C)(O)C1O)Oc1ccccc1` (stereo partly drawn) [ENUC-02023-1], the results for the EC50 in series [10], in series [11] and in series [12] were 0.0445 µM, 0.0367 µM and 0.0254 µM, respectively. The CC50 in the series “Cytotoxicity panel, CEM” was above 400 µM; in series [1], 252 µM; in series [4], above 400 µM.

For the molecule `Nc1ccn([C@@H]2O[C@H](CO)C(O)[C@@H]2F)c(=S)n1` (stereo partly drawn) [EFVX-01857], the EC50 in the series with Influenza A H1N1 (Influenza A virus, H1N1, read-out: Influenza A H1N1 EC50) was above 100 µM; in the series on Influenza A H3N2 (Influenza A virus, H3N2, read-out: Influenza A H3N2 EC50), above 100 µM; in [13] it was above 100 µM; in the series on Influenza B (Influenza B virus; read-out: Influenza B EC50), above 100 µM; in the series with RSV it was above 100 µM; in the series with Measles it was above 100 µM. In addition, the EC50 in the series on CHIK Virus, with Dengue Virus, in the series on RVFV, in the series with Tacaribe Virus, in the series on VEEV and with West Nile Virus was above 100 µg/mL each time. In the series with SARS, the EC50 is above 87 µM. Further, in “in vitro”, the CC50 was determined as 87 µM.

For the molecule `CC(C)OP1(=O)OC[C@H]2O[C@@H](n3ccc(=O)[nH]c3=O)C(F)[C@H]2O1` (stereo partly drawn) [EFVX- 01841], the EC50 in the series on Influenza A H1N1 (Influenza A virus, H1N1; read-out: Influenza A H1N1 EC50) was above 100 µM; in the series with Influenza A H3N2 (Influenza A virus, H3N2; read-out: Influenza A H3N2 EC50), above 100 µM; in series [13], above 100 µM; in the series on Influenza B (Influenza B virus, read-out: Influenza B EC50), above 100 µM; with RSV, above 100 µM; in the series on SARS, 70 µM. Besides, the CC50 in the series “in vitro” is above 89 µM.
